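96-well plates; 48 h exposure; 5 concentrations. Endpoints by linear interpolation between flanking doses. Not reached: highest tested concentration assigned. TGI marks complete inhibition of growth.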
Experiments:
Test in all cases: inhibition of tumour cell growth, NCI panel, 48 h
[1] = test system: 786-0 renal
[2] = test system: A498 renal
[3] = test system: A549 NSCLC
[4] = test system: ACHN renal
[5] = test system: CAKI-1 renal
[6] = test system: CCRF-CEM leukemia
[7] = test system: COLO 205 colon
[8] = test system: DU-145 prostate
[9] = test system: EKVX NSCLC
[10] = test system: HCC-2998 colon
[11] = test system: HCT-116 colon
[12] = test system: HCT-15 colon
[13] = test system: HL-60(TB) leukemia
[14] = test system: HOP-62 NSCLC
[15] = test system: HOP-92 NSCLC
[16] = test system: HT29 colon
[17] = test system: IGROV1 ovarian
[18] = test system: K-562 leukemia
[19] = test system: KM12 colon
[20] = test system: LOX IMVI melanoma
[21] = test system: M14 melanoma
[22] = test system: MALME-3M melanoma
[23] = test system: MCF7 breast
[24] = test system: MDA-MB-231 breast
[25] = test system: MDA-MB-435
[26] = test system: MDA-N
[27] = test system: MOLT-4 leukemia
[28] = test system: NCI-H226 lung
[29] = test system: NCI-H23 lung
[30] = test system: NCI-H460 lung
[31] = test system: NCI-H522 lung
[32] = test system: NCI/ADR-RES ovarian
[33] = test system: OVCAR-3 ovarian
[34] = test system: OVCAR-4 ovarian
[35] = test system: OVCAR-5 ovarian
[36] = test system: OVCAR-8 ovarian
[37] = test system: PC-3 prostate
[38] = test system: RXF 393 renal
[39] = test system: SF-268 CNS
[40] = test system: SF-295 CNS
[41] = test system: SF-539 CNS
[42] = test system: SK-MEL-2 melanoma
[43] = test system: SK-MEL-28 melanoma
[44] = test system: SK-MEL-5 melanoma
[45] = test system: SK-OV-3 ovarian
[46] = test system: SN12C renal
[47] = test system: SNB-19 CNS
[48] = test system: SNB-75 CNS
[49] = test system: SR leukemia
[50] = test system: SW-620 colon
[51] = test system: T-47D breast
[52] = test system: TK-10 renal
[53] = test system: U251 CNS
[54] = test system: UACC-257 melanoma
[55] = test system: UACC-62 melanoma
[56] = test system: UO-31 renal
[57] = test system: BT-549 breast
[58] = test system: RPMI-8226 leukemia

In the case of `CC(=O)OCC1OC(n2c(C)c(C)c(C)c(C#N)c2=S)C(OC(C)=O)C(OC(C)=O)C1OC(C)=O` (stereo not given), the TGI [1] is reported as 93.1 µM, the TGI [2] is reported as over 100 µM and the TGI [3] is reported as over 100 µM. It also gave a TGI [4] of over 100 µM, a TGI [5] of over 100 µM and a TGI [6] of over 100 µM. For the same compound, the TGI [7] was over 100 µM, the TGI [8] was over 100 µM and the TGI [9] was 94.3 µM. It also gave a TGI [10] of over 100 µM, a TGI [11] of 67.7 µM and a TGI [12] of over 100 µM. The TGI [13] was over 100 µM, the TGI [14] was 49.8 µM and the TGI [15] was over 100 µM. For the same compound, the TGI [16] was over 100 µM, the TGI [17] was over 100 µM and the TGI [18] was over 100 µM. It also gave a TGI [19] of over 100 µM, a TGI [20] of over 100 µM and a TGI [21] of over 100 µM. It also gave a TGI [22] of over 100 µM, a TGI [23] of over 100 µM and a TGI [24] of over 100 µM. It also gave a TGI [25] of over 100 µM, a TGI [26] of over 100 µM and a TGI [27] of over 100 µM. It also gave a TGI [28] of over 100 µM, a TGI [29] of over 100 µM and a TGI [30] of over 100 µM. For the same compound, the TGI [31] was 69.1 µM, the TGI [32] was over 100 µM and the TGI [33] was over 100 µM. The TGI [34] was over 100 µM, the TGI [35] was over 100 µM and the TGI [36] was over 100 µM. The TGI [37] was over 100 µM, the TGI [38] was 57.6 µM and the TGI [39] was over 100 µM. For the same compound, the TGI [40] was 61.4 µM, the TGI [41] was over 100 µM and the TGI [42] was 78.2 µM. The TGI [43] was over 100 µM, the TGI [44] was over 100 µM and the TGI [45] was 80.9 µM. It also gave a TGI [46] of over 100 µM, a TGI [47] of over 100 µM and a TGI [48] of over 100 µM. It also gave a TGI [49] of over 100 µM, a TGI [50] of over 100 µM and a TGI [51] of over 100 µM. For the same compound, the TGI [52] was over 100 µM, the TGI [53] was over 100 µM and the TGI [54] was over 100 µM. For the same compound, the TGI [55] was over 100 µM and the TGI [56] was 59.7 µM.

For `C[C@H](C1CC2(C)OC2(C)C(=O)O1)[C@H]1CC[C@H]2[C@@H]3[C@@H]4O[C@@H]4[C@@]4(O)CC=CC(=O)[C@]4(C)[C@H]3CC[C@]12C` (stereo not given in full), the TGI [1] was over 50 µM, the TGI [2] was over 50 µM and the TGI [3] was over 50 µM. It also gave a TGI [4] of over 50 µM, a TGI [57] of over 50 µM and a TGI [5] of over 50 µM. For the same compound, the TGI [7] was over 50 µM, the TGI [8] was over 50 µM and the TGI [9] was over 50 µM. It also gave a TGI [10] of over 50 µM, a TGI [11] of over 50 µM and a TGI [12] of over 50 µM. The TGI [13] was over 50 µM, the TGI [14] was over 50 µM and the TGI [15] was over 50 µM. The TGI [16] was over 50 µM, the TGI [17] was over 50 µM and the TGI [18] was over 50 µM. It also gave a TGI [19] of over 50 µM, a TGI [20] of over 50 µM and a TGI [21] of over 50 µM. The TGI [23] was over 50 µM, the TGI [24] was over 50 µM and the TGI [25] was over 50 µM. The TGI [26] was over 50 µM, the TGI [27] was over 50 µM and the TGI [28] was over 50 µM. The TGI [29] was over 50 µM, the TGI [30] was over 50 µM and the TGI [31] was over 50 µM. For the same compound, the TGI [32] was over 50 µM, the TGI [33] was over 50 µM and the TGI [34] was over 50 µM. For the same compound, the TGI [35] was over 50 µM, the TGI [36] was over 50 µM and the TGI [37] was over 50 µM. For the same compound, the TGI [58] was over 50 µM, the TGI [38] was 23.9 µM and the TGI [39] was over 50 µM. It also gave a TGI [40] of over 50 µM, a TGI [42] of over 50 µM and a TGI [43] of over 50 µM. The TGI [44] was over 50 µM, the TGI [45] was over 50 µM and the TGI [46] was over 50 µM. For the same compound, the TGI [47] was over 50 µM, the TGI [48] was 19.8 µM and the TGI [50] was over 50 µM. It also gave a TGI [51] of over 50 µM, a TGI [52] of over 50 µM and a TGI [53] of over 50 µM. It also gave a TGI [54] of over 50 µM, a TGI [55] of over 50 µM and a TGI [56] of over 50 µM.
